IC50 data for 38 compounds are collected here from patent US20110144056A1, “PYRAZOLE DERIVATIVES USEFUL AS INHIBITORS OF FAAH” (priority 2008, published 2011).

For this assay, the target named is T1, FAAH (Homo sapiens, UniProt O00519).
T1 construct: The full length FAAH was subcloned into the mammalian expression vector, pcDEF.neo; expressed in transfected cells; cDNA from Origene
T1 sequence (O00519 1-579): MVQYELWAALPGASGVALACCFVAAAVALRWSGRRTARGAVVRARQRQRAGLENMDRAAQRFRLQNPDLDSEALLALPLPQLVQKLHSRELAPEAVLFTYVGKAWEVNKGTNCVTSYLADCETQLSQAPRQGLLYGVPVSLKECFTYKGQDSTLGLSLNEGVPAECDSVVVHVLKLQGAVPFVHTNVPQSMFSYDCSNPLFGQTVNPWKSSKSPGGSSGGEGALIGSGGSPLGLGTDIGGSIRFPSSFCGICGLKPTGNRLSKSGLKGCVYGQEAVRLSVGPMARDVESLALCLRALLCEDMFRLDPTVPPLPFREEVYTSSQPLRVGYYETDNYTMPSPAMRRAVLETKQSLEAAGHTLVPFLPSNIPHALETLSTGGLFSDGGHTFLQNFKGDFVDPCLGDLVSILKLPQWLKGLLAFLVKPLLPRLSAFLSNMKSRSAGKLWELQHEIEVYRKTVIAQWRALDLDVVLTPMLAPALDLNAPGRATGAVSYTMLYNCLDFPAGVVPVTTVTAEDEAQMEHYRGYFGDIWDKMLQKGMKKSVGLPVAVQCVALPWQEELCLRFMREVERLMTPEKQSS
Kind of assay: FAAH enzyme assay, lysate of CHO cells expressing human FAAH. Type of assay: biochemical. The following applies: cell lysate, read-out: FAAH Human Cell Lysate IC50. An excerpt: To assist in assay development stable cell lines for human, murine and rat full length FAAH were developed. Human FAAH cDNA (Accession No: NM_001441.1) was purchased from Origene (Rockville, Md.). The full length FAAH was subcloned into the mammalian expression vector, pcDEF.neo, using XbaI and […] restriction sites and used for stable cell line generation.
CHO cells expressing FAAH were used to prepare either crude cell lysate or microsome fractions. To harvest cells, tissue culture media was decanted, the monolayer washed three times with Ca^++Mg^++ free PBS and cells recovered after 15 min in enzyme free dissociation media (Millipore Corp, Billerica, Mass.). Cells were collected by centrifuging at 2000 rpm for 15 min. and the cell pellet re-suspended with 50 mM HEPES (pH 7.4) containing 1 mM EDTA and the protease inhibitors aprotinin (1 mg/ml) and leupeptin (100 μM). The suspension was sonicated at 4° C. and the cell lysate recovered after centrifuging at 12,000×g (14,600 rpm, SS34 rotor) for 20 min at 4° C. to form a crude pellet of cell debris, nuclei, peroxisomes, lysosomes, and mitochondria; the supernatant or cell lysate was used for FAAH enzyme assay. In some cases, microsomes fractions enriched in FAAH were prepared by centrifuging the cell lysate further at 27,000 rpm (100,000×g) in SW28 rotor for 50 minutes at 4° C. The pellet containing FAAH-enriched microsomes was re-suspend in 50 mM HEPES, (pH 7.4) 1 mM EDTA, and any remaining DNA sheared by passage of material through a 23 gauge needle and aliquots of enzyme were store at −80° C. prior to use.
(American Radiolabeled Chemicals; 1 mCi/ml) with FAAH (Life Sciences (1995), 56, 1999-2005 and Journal of Pharmacology and Experimented Therapeutics (1997), 283, 729-734), Analytical. Biochemistry (2003), 318, 270-5. In addition, routine assays were performed monitoring hydrolysis of arachidonyl-7-amino-4-methylcoumarin amide (AAMCA) by following increase in fluorescence upon release of 7-amino 4-methyl coumarin (λEX=355 nm, (λEM=460 nm). Analytical. Biochemistry (2005). 343, 143-51.
Assays are performed on either cell lysate or microsome fractions prepared as described or in whole cell format employing either the fluorescent substrate AAMCA (Cayman chemical, Ann Arbor, Mich.,) or ^3H-anandmaide ([ETHANOLAMINE-1-3H]American Radiolabeled Chemicals; 1 mCi/ml). The cell lysate or microsome assay is performed in Costar black wall, clear bottom plates by adding FAAH_CHO (whole cell, cell lysate or microsome) in assay buffer (50 mM Phosphate, pH 8.0, 1 mM EDTA, 200 mM KCl, 0.2% glycerol, 0.1% fatty acid free BSA) to each well, followed by either DMSO or compound and allowed to incubate at 22-25° C. for fifteen minutes. AAMCA substrate was used to achieve a final concentration of 1 μM and reaction allowed to proceed at room temperature for 1-3 hours. Fluorescent release as a measure of FAAH activity was monitored by reading the plate in a CytoFluor Multiplate Reader ([…]). Whole cell assay is conducted with cells harvested after rinsing tissue culture flasks three times with Ca^++Mg^++ free PBS, incubating for 10 mm in Enzyme free dissociation media and centrifuging for 5 minutes at 1,000 rpm in table top centrifuge. Cells are resuspended in assay buffer at desired cell number in (4×10^4 cells/assay in 96-well format; 1×10^4 cells/assay in 384-well format) and assayed as described.
Alternatively, assays are performed using anandamide [ethanolamine 1-^3H] (specific activity of 10 Ci/mmol) diluted with cold anandamide to achieve a final assay concentration of 1 μM anandamide (˜50,000 cpm). Enzyme (CHO cell lysate, brain or liver homogenate) is incubated in assay buffer (50 mM Phosphate, pH 8.0, 1 mM EDTA, 200 mM KCl, 0.2% glycerol, 0.1% fatty acid free BSA) with inhibitor at 25° C. for 30 minutes. The reaction was terminated by addition of 2 volumes of chloroform:methanol (1:1) and mixed by vortexing. […]
What is called IC50 is the concentration needed to halve the response being measured. On to “6-{4-[(5-chloropyridin-2-yl)sulfanyl]-1-(2-fluoroethyl)-1H-pyrazol-3-yl}-2-(difluoromethyl)quinoline [Example 333]”, for which the IC50 was 79 nM.

Consider `O=C1NCCc2cc(-c3nn(-c4ccc(F)cc4)cc3Sc3ccc(Cl)cc3)ccc21` [Example 308, 6-{4-[(4-chlorophenyl)sulfanyl]-1-(4-fluorophenyl)-1H-pyrazol-3-yl}-3,4-dihydroisoquinolin-1(2H)-one], for which the IC50 stood at 18 nM.

On to `CCN1CCc2cc(-c3nn(-c4ccc(F)cc4)cc3Sc3ccc(Cl)cc3)ccc2C1=O` [Example 309, 6-{4-[(4-chlorophenyl)sulfanyl]-1-(4-fluorophenyl)-1H-pyrazol-3-yl}-2-ethyl-3,4-dihydroisoquinolin-1(2H)-one], for which the IC50 was determined as 16 nM.

Turning to `O=C1NCCc2cc(-c3n[nH]cc3Sc3ccc(Cl)cc3)ccc21` [Example 310, 6-{4-[(4-chlorophenyl)sulfanyl]-1H-pyrazol-3-yl}-3,4-dihydroisoquinolin-1(2H)-one], the half-inhibitory concentration (IC50) amounted to 72 nM.

As to `O=C1NCCc2cc(-c3nn(CCF)cc3Sc3ccc(Cl)cc3)ccc21` [Example 311], the IC50 is 91 nM.

Take `O=c1[nH]cnc2cc(-c3n[nH]cc3Sc3ccc(Cl)cc3)ccc12` [Example 312, 7-{4-[(4-chlorophenyl)sulfanyl]-1H-pyrazol-3-yl}-quinazolin-4(3H)-one]: the IC50 is 228 nM.

Take `O=c1[nH]cnc2cc(-c3nn(-c4ccc(F)cc4)cc3Sc3ccc(Cl)cc3)ccc12` [Example 313, 7-{4-[(4-chlorophenyl)sulfanyl]-1-(4-fluorophenyl)-1H-pyrazol-3-yl}quinazolin-4(3H)-one]: the half-inhibitory concentration (IC50) stood at 8.7 nM.

Take `O=c1c2ccc(-c3nn(C4CC4)cc3Sc3ccc(Cl)cc3)cc2ncn1C1CC1` [Example 314, 7-{4-[(4-chlorophenyl)sulfanyl]-1-cyclopropyl-1H-pyrazol-3-yl}-3-cyclopropylquinazolin-4(3H)-one]: the IC50 turned out to be 202 nM.

As for `O=c1[nH]cnc2cc(-c3nn(C4CC4)cc3Sc3ccc(Cl)cc3)ccc12` [Example 315, 7-{4-[(4-chlorophenyl)sulfanyl]-1-cyclopropyl-1H-pyrazol-3-yl}quinazolin-4(3H)-one], the half-maximal inhibitory concentration (IC50) came out at 86 nM.

`CN(C)C(=O)c1ccc2cc(-c3n[nH]cc3Sc3ccc(Cl)cn3)ccc2n1` [Example 330, 6-{4-[(5-chloropyridin-2-yl)sulfanyl]-1H-pyrazol-3-yl}-N,N-dimethylquinoline-2-carboxamide]: the 50% inhibitory concentration (IC50) is 5.8 nM.

As to `CN(C)C(=O)c1ccc2cc(-c3nn(C4CC4)cc3Sc3ccc(Cl)cn3)ccc2n1` [Example 331, 6-{4-[(5-chloropyridin-2-yl)sulfanyl]-1-cyclopropyl-1H-pyrazol-3-yl}-N,N-dimethylquinoline-2-carboxamide], the IC50 came out at 77 nM.

Consider `FC(F)c1ccc2cc(-c3n[nH]cc3Sc3ccc(Cl)cn3)ccc2n1` [Example 332], for which the half-inhibitory concentration (IC50) amounted to 268 nM.

Consider `O=C1NCCc2cc(-c3nn(-c4ccccn4)cc3Sc3ccc(Cl)cc3)ccc21` [Example 335], for which the IC50 is 8 nM.

As for `CCN1CCc2cc(-c3nn(-c4ccccn4)cc3Sc3ccc(Cl)cc3)ccc2C1=O` [Example 338], the IC50 was determined as 6 nM.

`O=C1c2ccc(-c3nn(-c4ccccn4)cc3Sc3ccc(Cl)cc3)cc2CCN1CCF` [Example 339]: the IC50 was determined as 2.7 nM.

Regarding `CCN1CCc2cc(-c3nn(CC)cc3Sc3ccc(Cl)cc3)ccc2C1=O` [Example 340], the IC50 came to 25 nM.

Consider `CCn1cc(Sc2ccc(Cl)cc2)c(-c2ccc3c(c2)CCN(CCF)C3=O)n1` [Example 341], for which the 50% inhibitory concentration (IC50) worked out at 47 nM.

With `CCn1cc(-n2cc(Sc3ccc(Cl)cc3)c(-c3ccc4c(c3)CCNC4=O)n2)cn1` [Example 344], the IC50 is 16 nM.

On to `O=C1CCc2cc(-c3nn(-c4ccccn4)cc3Sc3ccc(Cl)cc3)ccc2N1` [Example 345], for which the IC50 was 36 nM.

On to `O=C1CCc2cc(-c3nn(-c4ccccn4)cc3Sc3ccc(Cl)cc3)ccc2N1CCF` [Example 346], for which the half-inhibitory concentration (IC50) was found to be 15 nM.

Regarding `CCn1cc(-n2cc(Sc3ccc(Cl)cc3)c(-c3ccc4c(=O)[nH]cnc4c3)n2)cn1` [Example 347], the half-inhibitory concentration (IC50) was 12 nM.

For the compound `CCn1cc(-n2cc(Sc3ccc(Cl)cc3)c(-c3ccc4c(=O)n(-c5cnn(CC)c5)cnc4c3)n2)cn1` [Example 348], the half-maximal inhibitory concentration (IC50) came to 36 nM.

`CC(C)(O)c1ccc(-c2nn(-c3ccc(F)cn3)cc2Sc2ccc(Cl)cc2)nn1` [Example 349]: the IC50 came out at 59 nM.

For the compound `CC(C)(O)c1ccc(-c2nn(-c3ccc(F)cn3)cc2Sc2ccc(Cl)cn2)nn1` [Example 350], the IC50 came to 103 nM.

As for `CC(C)(O)c1ccc(-c2nn(-c3cnn(C4CC4)c3)cc2Sc2ccc(Cl)cc2)nn1` [Example 351], the IC50 came out at 246 nM.

With `CCOC(=O)c1ccc2cc(-c3nn(C)cc3Sc3ccc(Cl)cc3)ccc2n1` [Example 352], the concentration for half-maximal inhibition (IC50) is 2.2 nM.

Turning to `Cn1cc(Sc2ccc(Cl)cc2)c(-c2ccc3nc(C(N)=O)ccc3c2)n1` [Example 353], the half-maximal inhibitory concentration (IC50) worked out at 0.47 nM.

`CCOC(=O)c1ccc2cc(-c3n[nH]cc3Sc3ccc(Cl)cc3)ccc2n1` [Example 354]: the concentration for half-maximal inhibition (IC50) came to 0.93 nM.

On to `CCNC(=O)c1ccc2cc(-c3n[nH]cc3Sc3ccc(Cl)cc3)ccc2n1` [Example 355], for which the IC50 amounted to 1.38 nM.

Turning to `CC(C)(O)c1ccc2cc(-c3nn(CCF)cc3Sc3ccc(Cl)cc3)ccc2n1` [Example 357], the IC50 came to 121 nM.

In the case of `CC(C)(O)c1ccc2cc(-c3n[nH]cc3Sc3ccc(Cl)cc3)ccc2n1` [Example 358], the 50% inhibitory concentration (IC50) worked out at 423 nM.

For the compound `CC(=O)N1CCc2cc(-c3n[nH]cc3Sc3ccc(Cl)cc3)ccc2C1` [Example 359], the half-maximal inhibitory concentration (IC50) worked out at 101 nM.

For `CC(=O)N1CCc2cc(-c3nn(C4CC4)cc3Sc3ccc(Cl)cc3)ccc2C1` [Example 360], the IC50 is 9.8 nM.

For `CC(=O)N1CCc2cc(-c3nn(CCF)cc3Sc3ccc(Cl)cc3)ccc2C1` [Example 362], the half-inhibitory concentration (IC50) turned out to be 48 nM.

Take `N#Cc1ccc2cc(-c3n[nH]cc3Sc3ccc(Cl)cc3)ccc2n1` [Example 363]: the IC50 was found to be 23 nM.

For `Cn1cc(Sc2ccc(Cl)cc2)c(-c2ccc3nc(C#N)ccc3c2)n1` [Example 364], the IC50 worked out at 131 nM.

With `CCNC(=O)c1ccc2cc(-c3nn(CCF)cc3Sc3ccc(Cl)cc3)ccc2n1` [Example 366], the IC50 was 7.2 nM.

As for `CCNC(=O)c1ccc2cc(-c3nn(CC(F)F)cc3Sc3ccc(Cl)cc3)ccc2n1` [Example 367], the half-maximal inhibitory concentration (IC50) is 20 nM.
